We go through 1 compound from article PMC6657685, “Cloning, purification, and characterization of GH3 β-glucosidase, MtBgl85, from Microbulbifer thermotolerans DAU221” (PeerJ, 2019).

The test has as its target T1, MtBgl85 (Microbulbifer thermotolerans, UniProt Z9ZKX7DI54).
T1 construct: signal peptide (1-25, predicted) removed; N-terminal His6 tag (pCold I); expressed in E. coli BL21 (DE3); precursor 772 residues, mature 747 residues, 81,924 Da; about 85 kDa on SDS-PAGE; monomer
T1 sequence (Z9ZKX7DI54 26-772): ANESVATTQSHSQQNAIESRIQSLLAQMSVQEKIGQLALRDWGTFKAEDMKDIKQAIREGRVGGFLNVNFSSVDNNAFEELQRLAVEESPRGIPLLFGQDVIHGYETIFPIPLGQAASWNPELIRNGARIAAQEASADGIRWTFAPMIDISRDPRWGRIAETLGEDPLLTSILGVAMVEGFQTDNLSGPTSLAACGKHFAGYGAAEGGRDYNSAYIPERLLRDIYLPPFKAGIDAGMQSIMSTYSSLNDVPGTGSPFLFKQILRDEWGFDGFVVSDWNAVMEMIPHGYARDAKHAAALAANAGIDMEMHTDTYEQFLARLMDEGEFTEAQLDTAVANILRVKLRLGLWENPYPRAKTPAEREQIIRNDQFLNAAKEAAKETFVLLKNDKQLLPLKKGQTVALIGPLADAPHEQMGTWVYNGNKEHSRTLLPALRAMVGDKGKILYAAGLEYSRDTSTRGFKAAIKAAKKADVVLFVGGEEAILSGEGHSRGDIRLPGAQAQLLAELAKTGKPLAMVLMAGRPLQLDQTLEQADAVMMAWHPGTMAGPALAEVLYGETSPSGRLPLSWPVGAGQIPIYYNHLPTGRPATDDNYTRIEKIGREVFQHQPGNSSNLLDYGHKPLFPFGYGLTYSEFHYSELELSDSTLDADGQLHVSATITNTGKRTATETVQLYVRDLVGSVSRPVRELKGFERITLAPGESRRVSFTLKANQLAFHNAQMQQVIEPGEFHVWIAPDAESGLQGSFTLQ
Briefly: residual activity with pNPβG. In kind it is biochemical. The following applies: read-out: % residual activity at 10 mM.

For the compound `OC[C@H]1OC(O)[C@H](O)[C@@H](O)[C@@H]1O` (stereo partly shown) [glucose], the remaining activity at 10000 µM came to 59%.
